These results are taken from patent US20130123358A1, “Metabolic Benefits to Butyrate as a Chronic Diet Supplement” (priority 2009, published 2013).

Experiment [1] relates to skeletal muscle mitochondrial function. As to the kind of experiment: Fatty acid oxidation and gene expression in skeletal muscle. The class given is in vivo, mouse. The settings on record: butyrate 5% w/w in HFD 13 weeks. On the procedure: Total RNA was extracted from frozen tissues (kept at −80° C.) using Tri-Reagent (T9424, Sigma) as described elsewhere (16). Taqman RT-PCR primer and probe were used to determine mRNA for PGC-1α (Mm00447183_m1), UCP-1 (Mm00494069_m1), PPARδ (Mm01305434_m1) and CPT1b (Mm00487200_m1). The reagents were purchased from Applied Biosystems (Foster City, Calif.). Mouse ribosome 18S rRNA_s1 (without intron-exon junction) was used as an internal control. Reaction was conducted with 7900 HT Fast real time PCR System (Applied Biosystems, Foster City, Calif.).
Mitochondrial function was examined in the skeletal muscle tissue and L6 muscle cells under butyrate treatment. Fatty acid oxidation was monitored in the […] with ^14C-labeled palmitic acid.
Vastus laterais muscle and blood samples were collected from mice at 13 weeks on HFD (18 weeks in age) and examined for fatty acid oxidation, gene expression, and blood lipids. FIG. 7A illustrates the fatty acid oxidation in muscle, measured as a fold change in ^14C-labeled CO2.
In addition, relative fold change in mRNA was used to indicate gene expression of PGC-1α target genes, such as CPT-1b (carnitine palmitoyltransferase-1b) and COX-I (cytochrome c oxidase I), and of the nuclear receptor PPARδ. In FIG. 7C, mitochondrial DNA of COX I was determined by Sybr green RT-PCR. The fatty acid oxidation was associated with expression of PGC-1α target genes, such as CPT-1b (carnitine palmitoyltransferase-1b) and COX-I (cytochrome c oxidase I) (9). Expression of these two genes was increased in the skeletal muscle of butyrate-treated mice (FIGS. 7B and 7C). The nuclear receptor PPARδ promotes fatty acids oxidation in skeletal muscle (29).

A further experiment has as its system pigs. The settings on record: dietary; cited from earlier work.

As for `CCCC(=O)[O-].[Na+]` [sodium butyrate], the “fatty acid oxidation in muscle, increase in 14C-labeled CO2” value in experiment [1] (14C-labeled palmitic acid) came to 200%. Also, in experiment [1] (mRNA), the “CPT-1b expression in skeletal muscle” value was “increased” and the “PPARδ expression in skeletal muscle” value is “also increased”. For the same compound, in experiment [1] (mitochondrial DNA by Sybr green RT-PCR), the “COX-I expression in skeletal muscle” value is listed as “increased”. Further, in the experiment with pigs, the “daily body mass gain” value is “increase”.
